Measured values as given in patent US11672251B2, “Herbicidally active pyridyl-/pyrimidyl-pyrimidine derivatives” (Syngenta Participations AG, priority 2017, dated 2023).

What was measured:
Format in all cases: in vivo
[1] = system: Echinochloa crus-galli (ECHCG); experiment: B1 pre-emergence herbicidal activity; conditions: Test 1b, rate 1000 g/ha, evaluated after 13 days, scale 5=total damage to plant, 0=no damage to plant
Protocol: (§1) Seeds of a variety of test species were sown in standard soil in pots: Triticum aestivium (TRZAW), Avena fatua (AVEFA), Alopecurus myosuroides (ALOMY), Echinochloa crus-galli (ECHCG), Lolium perenne (LOLPE), Zea Mays (ZEAMX), Abutilon theophrasti (ABUTH), Amaranthus retroflexus (AMARE) and Setaria faberi (SETFA). After cultivation for one day (pre-emergence) under controlled conditions in a glasshouse (at 24/16° C., day/night; 14 hours light; 65% humidity), the plants were sprayed with an aqueous spray solution derived from the formulation of the technical active ingredient in acetone/water (50:50) solution containing 0.5% Tween 20 (polyoxyethelyene sorbitan monolaurate, CAS RN 9005-64-5). The test plants were then grown in a glasshouse under controlled conditions (at 24/16° C., day/night; 14 hours light; 65% humidity) and watered twice daily. After 13 days, the test was evaluated (5=total damage to plant; 0=no damage to plant).

[2] = system: Avena fatua (AVEFA); experiment: B1 pre-emergence herbicidal activity; conditions: Test 1b, rate 1000 g/ha, evaluated after 13 days, scale 5=total damage to plant, 0=no damage to plant
Protocol: as §1

[3] = system: Setaria faberi (SETFA); experiment: B1 pre-emergence herbicidal activity; conditions: Test 1b, rate 1000 g/ha, evaluated after 13 days, scale 5=total damage to plant, 0=no damage to plant
Protocol: as §1

[4] = system: Lolium perenne (LOLPE); experiment: B1 pre-emergence herbicidal activity; conditions: Test 1b, rate 1000 g/ha, evaluated after 13 days, scale 5=total damage to plant, 0=no damage to plant
Protocol: as §1

[5] = system: Alopecurus myosuroides (ALOMY); experiment: B1 pre-emergence herbicidal activity; conditions: Test 1b, rate 1000 g/ha, evaluated after 13 days, scale 5=total damage to plant, 0=no damage to plant
Protocol: as §1

[6] = system: Triticum aestivium (TRZAW); experiment: B1 pre-emergence herbicidal activity; conditions: Test 1b, rate 1000 g/ha, evaluated after 13 days, scale 5=total damage to plant, 0=no damage to plant
Protocol: as §1

[7] = system: Echinochloa crus-galli (ECHCG); experiment: B2 post-emergence herbicidal activity; conditions: Test B2b; post-emergence (sprayed after 8 days cultivation); rate 1000 g/ha; evaluated after 13 days; scale 5=total damage to plant, 0=no damage to plant
Protocol: (§2) Seeds of a variety of test species were sown in standard soil in pots: Triticum aestivium (TRZAW), Avena fatua (AVEFA), Alopecurus myosuroides (ALOMY), Echinochloa crus-galli (ECHCG), Lolium perenne (LOLPE), Zea Mays (ZEAMX), Abutilon theophrasti (ABUTH), Amaranthus retroflexus (AMARE) and Setaria faberi (SETFA). After 8 days cultivation (post-emergence) under controlled conditions in a glasshouse (at 24/16° C., day/night; 14 hours light; 65% humidity), the plants were sprayed with an aqueous spray solution derived from the formulation of the technical active ingredient in acetone/water (50:50) solution containing 0.5% Tween 20 (polyoxyethelyene sorbitan monolaurate, CAS RN 9005-64-5). The test plants were then grown in a glasshouse under controlled conditions (at 24/16° C., day/night; 14 hours light; 65% humidity) and watered twice daily. After 13 days, the test was evaluated (5=total damage to plant; 0=no damage to plant).

[8] = system: Avena fatua (AVEFA); experiment: B2 post-emergence herbicidal activity; conditions: Test B2b; post-emergence (sprayed after 8 days cultivation); rate 1000 g/ha; evaluated after 13 days; scale 5=total damage to plant, 0=no damage to plant
Protocol: as §2

[9] = system: Setaria faberi (SETFA); experiment: B2 post-emergence herbicidal activity; conditions: Test B2b; post-emergence (sprayed after 8 days cultivation); rate 1000 g/ha; evaluated after 13 days; scale 5=total damage to plant, 0=no damage to plant
Protocol: as §2

[10] = system: Lolium perenne (LOLPE); experiment: B2 post-emergence herbicidal activity; conditions: Test B2b; post-emergence (sprayed after 8 days cultivation); rate 1000 g/ha; evaluated after 13 days; scale 5=total damage to plant, 0=no damage to plant
Protocol: as §2

[11] = system: Alopecurus myosuroides (ALOMY); experiment: B2 post-emergence herbicidal activity; conditions: Test B2b; post-emergence (sprayed after 8 days cultivation); rate 1000 g/ha; evaluated after 13 days; scale 5=total damage to plant, 0=no damage to plant
Protocol: as §2

[12] = system: Triticum aestivium (TRZAW); experiment: B2 post-emergence herbicidal activity; conditions: Test B2b; post-emergence (sprayed after 8 days cultivation); rate 1000 g/ha; evaluated after 13 days; scale 5=total damage to plant, 0=no damage to plant
Protocol: as §2

| Compound | Control after pre-emergence application, damage score: ECHCG [1] | Control after pre-emergence application, damage score: AVEFA [2] | Control after pre-emergence application, damage score: SETFA [3] | Control after pre-emergence application, damage score: LOLPE [4] | Control after pre-emergence application, damage score: ALOMY [5] | Control after pre-emergence application, damage score: TRAZW [6] | Control after post-emergence application, damage score: ECHCG [7] | Control after post-emergence application, damage score: AVEFA [8] | Control after post-emergence application, damage score: SETFA [9] | Control after post-emergence application, damage score: LOLPE [10] | Control after post-emergence application, damage score: ALOMY [11] | Control after post-emergence application, damage score: TRAZW [12] |
| --- | --- | --- | --- | --- | --- | --- | --- | --- | --- | --- | --- | --- |
| Cc1nc(-c2cncnc2)ncc1N [Compound D3, 4-methyl-2-pyrimidin-5-yl-pyrimidin-5-amine] | 1 | 0 | 2 | 1 | 0 | 0 | 2 | 1 | 3 | 1 | 1 | 0 |
| CNc1cnc(-c2cncnc2)nc1C [Compound D4] | 0 | 0 | 2 | 1 | 0 | 0 | 1 | 0 | 1 | 1 | 1 | 0 |
| Nc1cnc(-c2cncc(F)c2)nc1C(F)(F)F [Compound D5, 2-(5-fluoro-3-pyridyl)-4-(trifluoromethyl)pyrimidin-5-amine] | 4 | 4 | 5 | 1 | 1 | 0 | 4 | 4 | 5 | 3 | 1 | 1 |
| CNc1cnc(-c2cncc(F)c2)nc1C(F)(F)F [Compound D6] | 4 | 1 | 4 | 1 | 0 | 0 | 5 | 2 | 5 | 3 | 0 | 1 |
| C=CCNc1cnc(-c2cncnc2)nc1C [Compound D7] | 2 | 1 | 4 | 1 | 0 | 0 | 2 | 1 | 4 | 0 | 0 | 1 |
| CN(C)c1cnc(-c2cncc(F)c2)nc1C(F)(F)F [Compound D8] | 2 | 1 | 4 | 1 | 0 | 0 | 4 | 1 | 5 | 0 | 0 | 0 |
| Nc1cnc(-c2cncnc2)nc1C(F)(F)F [Compound D9] | 3 | 2 | 4 | 1 | 0 | 0 | 3 | 3 | 5 | 2 | 0 | 0 |
| N#Cc1cncc(-c2ncc(N)c(C(F)(F)F)n2)c1 [Compound D10, 5-[5-amino-4-(trifluoromethyl)pyrimidin-2-yl]pyridine-3-carbonitrile] | 0 | 0 | 3 | 0 | 0 | 0 | 3 | 1 | 4 | 1 | 0 | 1 |
| CCNc1cnc(-c2cncc(N)c2)nc1C(F)(F)F [Compound D11] | 3 | 0 | 5 | 0 | 0 | 0 | 5 | 2 | 5 | 1 | 1 | 1 |
| CCN(CC)c1cnc(-c2cncc(F)c2)nc1C(F)(F)F [Compound D12] | 1 | 0 | 5 | 0 | 0 | 0 | 5 | 3 | 5 | 2 | 0 | 1 |
| Fc1cncc(-c2ncc(NCc3nccs3)c(C(F)(F)F)n2)c1 [Compound D15] | 4 | 1 | 5 | 0 | 0 | 0 | 5 |  | 5 | 2 | 1 | 0 |
